The structures appear in SMILES notation.

For ten compounds, EC50 and CC50 results are on record in patent publication US20230013823A1, “INHIBITORS OF HUMAN IMMUNODEFICIENCY VIRUS REPLICATION” (VIV HEALTHCARE UK (No. 5) LIMITED, priority 2019, published 2023).

Data set [1] concerns recombinant NL4-3 virus (Renilla luciferase in nef). The data set is described as follows: HIV cell culture assay (antiviral activity, luciferase readout in MT-2 cells). In kind it is cell-based. The following applies: Renilla, NL43. The procedure:
HIV cell culture assay—MT=2 cells, 293T cells and the proviral DNA clone of NL4-3 virus were obtained from the NIH AIDS Research and Reference Reagent Program. MT=2 cells were propagated in RPMI 1640 media supplemented with 10% heat inactivated fetal bovine serum (FBS), […] penicillin G and up to 100 units/mL streptomycin. The 293T cells were propagated in DMEM media supplemented with 10% heat inactivated FBS, […] penicillin G and […] streptomycin. A recombinant NL4-3 proviral clone, in which a section of the nef gene was replaced with the Renilla luciferase gene, was used to make the reference virus used in these studies. The recombinant virus was prepared through transfection of the recombinant NL4-3 proviral clone into 293T cells using Transit-293 Transfection Reagent from Mirus Bio LLC (Madison, Wis.). Supernatent was harvested after 2-3 days and the amount of virus present was titered in MT=2 cells using luciferase enzyme activity as a marker by measuring luciferase enzyme activity. Luciferase was quantitated using the EnduRen Live Cell Substrate from Promega (Madison, Wis.). Antiviral activities of compounds toward the recombinant virus were quantified by measuring luciferase activity in MT=2 cells infected for 4-5 days with the recombinant virus in the presence of serial dilutions of the compound.
The 50% effective concentration (EC50) was calculated by using the exponential form of the median effect equation where (Fa)=1/[1+(ED50/drug conc.)m] (Johnson V A, Byington R T. Infectivity Assay. In Techniques in HIV Research. ed. Aldovini A, Walker B D. 71-76. New York: Stockton Press. 1990). The 50% inhibitory concentration (EC50) was calculated by using the exponential form of the median effect equation where percent inhibition=1/[1+(EC50/drug concentration)m], where m is a parameter that reflects the slope of the concentration-response curve.

Data set [2] can be described thus: Compound cytotoxicity, XTT-based colorimetric assay. The conditions noted are these: human; uninfected MT2 cells, day 4, XTT. It is filed as cell-based. The procedure: Compound cytotoxicity and the corresponding CC50 values were determined using the same protocol as described in the antiviral assay except that uninfected cells were used. Cytotoxicity was assessed on day 4 in uninfected MT2 cells by using an XTT (2,3-bis[2-Methoxy-4-nitro-5-sulfophenyl]-2H-tetrazolium-5-carboxyanilide inner salt)-based colorimetric assay (Sigma-Aldrich, St Louis, Mo.).

For the compound `Cn1nc(NS(C)(=O)=O)c2c(Cl)ccc(-n3c([C@H](Cc4cc(F)cc(F)c4)NC(=O)Cn4nc(C(F)F)c5c4C(F)(F)[C@@H]4C[C@H]54)nc4cc(-c5ccnc(C(F)F)n5)ccc4c3=O)c21` (atropisomer, axis not shown; (P)) [Example 56, N—((S)-1-((3P)-3-(4-chloro-1-methyl-3-(methylsulfonamido)-1H-indazol-7-yl)-7-(2-(difluoromethyl)pyrimidin-4-yl)-4-oxo-3,4-dihydroquinazolin-2-yl)-2-(3,5-difluorophenyl)ethyl)-2-((3bS,4aR)-3-(difluoromethyl)-5,5-difluoro-3b,4,4a,5-tetrahydro-1H-cyclopropa[3,4]cyclopenta[1,2-c]pyrazol-1-yl)acetamide], in data set [1], the EC50 is 0.017 nM. In data set [2], this compound had a CC50 at 4 days above 100 nM.
The like results for `Cn1nc(NS(C)(=O)=O)c2c(Cl)ccc(-n3c([C@H](Cc4cc(F)cc(F)c4)NC(=O)Cn4nc(C(F)F)c5c4C(F)(F)[C@@H]4C[C@H]54)nc4cc(-c5cc(C(F)(F)F)ncn5)ccc4c3=O)c21` (atropisomer, axis not shown; (P)) [Example 25, N—((S)-1-((3P)-3-(4-chloro-1-methyl-3-(methylsulfonamido)-1H-indazol-7-yl)-4-oxo-7-(6-(trifluoromethyl)pyrimidin-4-yl)-3,4-dihydroquinazolin-2-yl)-2-(3,5-difluorophenyl)ethyl)-2-((3bS,4aR)-3-(difluoromethyl)-5,5-difluoro-3b,4,4a,5-tetrahydro-1H-cyclopropa[3,4]cyclopenta[1,2-c]pyrazol-1-yl)acetamide] were, in that order, 0.083 nM and above 100 nM.
Regarding `Cn1nc(NS(C)(=O)=O)c2c(Cl)ccc(-n3c([C@H](Cc4cc(F)cc(F)c4)NC(=O)Cn4nc(C(F)F)c5c4C(F)(F)[C@@H]4C[C@H]54)nc4cc(-c5ccnc(C#N)n5)ccc4c3=O)c21` (atropisomer, axis not shown; (P)) [Example 11, N—((S)-1-((3P)-3-(4-chloro-1-methyl-3-(methylsulfonamido)-1H-indazol-7-yl)-7-(2-cyanopyrimidin-4-yl)-4-oxo-3,4-dihydroquinazolin-2-yl)-2-(3,5-difluorophenyl)ethyl)-2-((3bS,4aR)-3-(difluoromethyl)-5,5-difluoro-3b,4,4a,5-tetrahydro-1H-cyclopropa[3,4]cyclopenta[1,2-c]pyrazol-1-yl)acetamide], the EC50 in data set [1] is 0.089 nM. In data set [2], the CC50 at 4 days is above 500 nM.
For `Cn1nc(NS(C)(=O)=O)c2c(Cl)ccc(-n3c([C@H](Cc4cc(F)cc(F)c4)NC(=O)Cn4nc(C(F)(F)F)c5c4C(F)(F)[C@@H]4C[C@H]54)nc4cc(-c5ccn(CC(C)(F)F)n5)ccc4c3=O)c21` (atropisomer, axis not shown; (P)) [Example 66, N—((S)-1-((3P)-3-(4-chloro-1-methyl-3-(methylsulfonamido)-1H-indazol-7-yl)-7-(1-(2,2-difluoropropyl)-1H-pyrazol-3-yl)-4-oxo-3,4-dihydroquinazolin-2-yl)-2-(3,5-difluorophenyl)ethyl)-2-((3bS,4aR)-5,5-difluoro-3-(trifluoromethyl)-3b,4,4a,5-tetrahydro-1H-cyclopropa[3,4]cyclopenta[1,2-c]pyrazol-1-yl)acetamide], in data set [1], the EC50 came out at 0.069 nM. The compound also yielded a CC50 at 4 days in data set [2] above 100 nM.
The like results for `Cn1nc(NS(C)(=O)=O)c2c(Cl)ccc(-n3c([C@H](Cc4cc(F)cc(F)c4)NC(=O)Cn4nc(C(F)F)c5c4C(F)(F)[C@@H]4C[C@H]54)nc4cc(-c5cncc(C(F)(F)F)n5)ccc4c3=O)c21` (atropisomer, axis not shown; (P)) [Example 22, N—((S)-1-((3P)-3-(4-chloro-1-methyl-3-(methylsulfonamido)-1H-indazol-7-yl)-4-oxo-7-(6-(trifluoromethyl)pyrazin-2-yl)-3,4-dihydroquinazolin-2-yl)-2-(3,5-difluorophenyl)ethyl)-2-((3bS,4aR)-3-(difluoromethyl)-5,5-difluoro-3b,4,4a,5-tetrahydro-1H-cyclopropa[3,4]cyclopenta[1,2-c]pyrazol-1-yl)acetamide] were, in that order, 0.06 nM and above 100 nM.
For `Cn1nc(NS(C)(=O)=O)c2c(Cl)ccc(-n3c([C@H](Cc4cc(F)cc(F)c4)NC(=O)Cn4nc(C(F)F)c5c4C(F)(F)[C@@H]4C[C@H]54)nc4cc(-c5ccn(CCCC(F)(F)F)n5)ccc4c3=O)c21` (atropisomer, axis not shown; (P)) [Example 53, N—((S)-1-((3P)-3-(4-chloro-1-methyl-3-(methylsulfonamido)-1H-indazol-7-yl)-4-oxo-7-(1-(4,4,4-trifluorobutyl)-1H-pyrazol-3-yl)-3,4-dihydroquinazolin-2-yl)-2-(3,5-difluorophenyl)ethyl)-2-((3bS,4aR)-3-(difluoromethyl)-5,5-difluoro-3b,4,4a,5-tetrahydro-1H-cyclopropa[3,4]cyclopenta[1,2-c]pyrazol-1-yl)acetamide], the EC50 in data set [1] was determined as 0.1 nM. In addition, the CC50 at 4 days in data set [2] was above 100 nM.
`Cc1cc(C#N)nc(-c2ccc3c(=O)n(-c4ccc(Cl)c5c(NS(C)(=O)=O)nn(C)c45)c([C@H](Cc4cc(F)cc(F)c4)NC(=O)Cn4nc(C(F)F)c5c4C(F)(F)[C@@H]4C[C@H]54)nc3c2)n1` (atropisomer, axis not shown; (P)) [Example 12, N—((S)-1-((3P)-3-(4-chloro-1-methyl-3-(methylsulfonamido)-1H-indazol-7-yl)-7-(4-cyano-6-methylpyrimidin-2-yl)-4-oxo-3,4-dihydroquinazolin-2-yl)-2-(3,5-difluorophenyl)ethyl)-2-((3bS,4aR)-3-(difluoromethyl)-5,5-difluoro-3b,4,4a,5-tetrahydro-1H-cyclopropa[3,4]cyclopenta[1,2-c]pyrazol-1-yl)acetamide]: the EC50 in data set [1] came out at 0.087 nM. In addition, the CC50 at 4 days in data set [2] is above 500 nM.
The like results for `Cn1nc(NS(C)(=O)=O)c2c(Cl)ccc(-n3c([C@H](Cc4cc(F)cc(F)c4)NC(=O)Cn4nc(C(F)F)c5c4C(F)(F)[C@@H]4C[C@H]54)nc4cc(-c5ncc(Cl)cc5F)ccc4c3=O)c21` (atropisomer, axis not shown; (P)) [Example 8, N—((S)-1-((3P)-3-(4-chloro-1-methyl-3-(methylsulfonamido)-1H-indazol-7-yl)-7-(5-chloro-3-fluoropyridin-2-yl)-4-oxo-3,4-dihydroquinazolin-2-yl)-2-(3,5-difluorophenyl)ethyl)-2-((3bS,4aR)-3-(difluoromethyl)-5,5-difluoro-3b,4,4a,5-tetrahydro-1H-cyclopropa[3,4]cyclopenta[1,2-c]pyrazol-1-yl)acetamide] were, in that order, 0.3 nM and above 500 nM.
For `Cc1nc2cc(-c3ccc4c(=O)n(-c5ccc(Cl)c6c(NS(C)(=O)=O)nn(C)c56)c([C@H](Cc5cc(F)cc(F)c5)NC(=O)Cn5nc(C(F)F)c6c5C(F)(F)[C@@H]5C[C@H]65)nc4c3)ccc2s1` (atropisomer, axis not shown; (P)) [Example 36, N—((S)-1-((3P)-3-(4-chloro-1-methyl-3-(methylsulfonamido)-1H-indazol-7-yl)-7-(2-methylbenzo[d]thiazol-5-yl)-4-oxo-3,4-dihydroquinazolin-2-yl)-2-(3,5-difluorophenyl)ethyl)-2-((3bS,4aR)-3-(difluoromethyl)-5,5-difluoro-3b,4,4a,5-tetrahydro-1H-cyclopropa[3,4]cyclopenta[1,2-c]pyrazol-1-yl)acetamide] the same measures were 1.8 nM and above 100 nM.
In the case of `Cn1nc(NS(C)(=O)=O)c2c(Cl)ccc(-n3c([C@H](Cc4cc(F)cc(F)c4)NC(=O)Cn4nc(C(F)F)c5c4C(F)(F)[C@@H]4C[C@H]54)nc4cc(-c5ccn(CC(F)(F)C(F)(F)F)n5)ccc4c3=O)c21` (atropisomer, axis not shown; (P)) [Example 48, N—((S)-1-((3P)-3-(4-chloro-1-methyl-3-(methylsulfonamido)-1H-indazol-7-yl)-4-oxo-7-(1-(2,2,3,3,3-pentafluoropropyl)-1H-pyrazol-3-yl)-3,4-dihydroquinazolin-2-yl)-2-(3,5-difluorophenyl)ethyl)-2-((3bS,4aR)-3-(difluoromethyl)-5,5-difluoro-3b,4,4a,5-tetrahydro-1H-cyclopropa[3,4]cyclopenta[1,2-c]pyrazol-1-yl)acetamide], the EC50 in data set [1] was found to be 0.091 nM. Besides, the CC50 at 4 days in data set [2] is above 100 nM.
